Data taken from publication PMC5760527, “Connexin 43 Hemichannel as a Novel Mediator of Sterile and Infectious Inflammatory Diseases” (Scientific Reports, 2018).
Where no end group is shown, it is not given here.

What was measured:
[1] = tested on: macrophage Cx43 hemichannel activities, RAW 264.7 cells; assay: Lucifer Yellow dye uptake, hemichannel permeability, calcium-depleted; type: cell-based, murine; details: LPS 0.5 μg/ml, 16 h, LY 15 min, P < 0.05 versus +LPS
Text: Because connexon is the structural unit for both hemichannel (1 connexon) and gap junction (2 connexons from opposing cells), which are both permeable to similar molecular weight molecules, such as the Lucifer yellow (LY). Thus, the LY dye uptake could be used to determine the channel permeability of both hemichannel (as indicated by the rate of LY entry into the cells) and gap junction channels (as judged by the distance of intercellular LY diffusion). The LY dye uptake assay relied on the ability of this dye present in the extracellular milieu to cross the plasma membrane and became concentrated inside of the cell, which could be quantified by fluorescence microscopy. To determine the effects of Cx43 mimetic peptides on hemichannel permeability, RAW 264.7 cells were subjected to LPS stimulation (0.5 µg/ml, 16 h) before replacing the medium with fresh DMEM containing various Cx43 mimetic peptides, GAP26 (100 µM), TAT-GAP19 (200 µM) or P5 (20 µM). Following a brief incubation (15 min), EGTA (1 mM) was added to deplete free calcium prior to the addition of LY dye (1%). Fifteen min later, cells were fixed with 2% paraformaldehyde, and the number of LY-positive cells was counted. The ratio of LY-positive cells vs. total cell counts (DAPI staining) was used as the measurement of hemichannel permeability.

[2] = tested on: Balb/c mice, polymicrobial sepsis (CLP); assay: CLP-induced sepsis survival; type: in vivo; details: i.p., +6, +18 and +36 h post CLP, two weeks; for survivors: saline 50%; for animal survival (in words): CLP, Balb/c mice
Text: This study was approved and performed in accordance with the guidelines of the Institutional Animal Care and Use Committee of the Feinstein Institute for Medical Research, Manhasset, New York, USA (Animal Protocol #2008-033, Approval date: September 10, 2014). To evaluate the effect of various Cx43 mimetic peptides on sepsis lethality, a clinically relevant animal model of sepsis induced by cecal ligation and puncture (CLP) was employed. Briefly, the cecum of Balb/c mice was ligated at about 5 mm from the cecal tip, and then punctured once with a 22-gauge needle. GAP26, TAT-GAP19 or P5 peptides were administered intraperitoneally into mice at indicated doses and time points, and animal survival rates were monitored for up to 2 wks. The Kaplan-Meier method was used to compare the differences in mortality rates between groups.

[3] = tested on: Cx43 GJ and hemichannel activities; details: cited from earlier work
Text: The establishment of HMGB1 as a critical mediator of various inflammatory diseases has prompted an on-going search for endogenous and exogenous modulators of HMGB1 secretion. […] We thus evaluated the alteration of macrophage hemichannel activities in the absence or presence of Cx43 mimetic peptides previously shown to be capable of blocking Cx43 hemichannels. […] Because Cx43 GJ and hemichannels often co-exist in plasma membranes, a definitive elucidation of the functions of Cx43 GJ or hemichannels has been quite challenging. First, genetic deletion would eliminate both channels. Secondly, these two types of Cx channels are susceptible to a similar array of chemical blockers. Latel ...

Cx43 EL1 peptide = target: T1, Cx43 EL1 peptide (Homo sapiens, UniProt P17302); assay: Surface Plasmon Resonance, Cx43 EL1 peptide; type: binding; details: Cx43 EL1 peptide
T1 construct: synthetic full-length Cx43 EL1 or EL2 peptide as judged by the Surface Plasmon Resonance Analysis
T1 sequence (P17302 45-76 limits assumed): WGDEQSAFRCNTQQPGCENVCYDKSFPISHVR

HMGB1 secretion = details: cited from earlier work
Text: (§1) The establishment of HMGB1 as a critical mediator of various inflammatory diseases has prompted an on-going search for endogenous and exogenous modulators of HMGB1 secretion.

PKR phosphorylation = details: cited from earlier work
Text: as §1

## YGRKKRRQRRRK-QIEIKKFK [TAT-GAP19]
[1]; TAT-GAP19 200 μM
  effect on LY dye uptake (hemichannel activities): elevated LY dye uptake
[2]; 15 mg/kg
  survivors: 60%
[2]; 120 mg/kg
  survivors: 20%
[2]
  animal survival (in words): decreased animal survival particularly when given at a comparable higher dose

## VCYDKSFPISHVR [GAP26, Cx43 mimetic peptide GAP26 (…), first extracellular loop]
[1]; GAP26 100 μM
  effect on endotoxin-induced hemichannel activities (LY dye uptake): significant impairment of the endotoxin-induced elevation of hemichannel activities
[2]
  animal survival (in words): reproducibly increased animal survival rates
[3]; after prolonged application, no reference given
  interruption of GJ formation: interruption of GJ formation after prolonged application
[3]
  inhibition of Cx43 hemichannel activities or gap junction formation: inhibiting Cx43 hemichannel activities or gap junction formation

## QPGCEN [P4]
Cx43 EL1 peptide
  Kd: 20 µM

## CC1(C)[C@@H](OC(=O)CCC(=O)O)CC[C@]2(C)[C@H]3C(=O)C=C4[C@@H]5C[C@@](C)(C(=O)O)CC[C@]5(C)CC[C@@]4(C)[C@]3(C)CC[C@@H]12 [carbenoxolone]
HMGB1 secretion
  PKR-mediated HMGB1 secretion: effectively prevented
PKR phosphorylation
  endotoxin-induced PKR phosphorylation: effectively prevented
[3]; no reference given
  blocking of Cx43 GJ and hemichannel activities: blocking Cx43 GJ and hemichannel activities
